Laboratory results from US11466025B2, “Thienopyridine derivatives containing unsaturated aliphatic olefinic bond, preparation method and use thereof” (Tianjin Institute of Pharmaceutical Research Co., Ltd., priority 2017, dated 2022).
Read-outs that look alike come from different tables or passages of the source.

How the values were obtained:
[1] = 1 μM
Experimental: Plasma samples (double sample) containing 1 μM of the compounds of the present invention, clopidogrel hydrogen sulfate (LBGL), 2-oxo product (2-Oxo) were prepared from human blank plasma, and incubated at 37° C. 50 μL of the above incubated plasma samples were taken at different time points, and 100 μL of precipitant (acetonitrile:methanol=7:3) and 50 μL of internal standard were added. The mixture was vortexed for 1 min and centrifuged for 10 min. 100 μL of the supernatant was taken into an inner inserted tube, centrifuged for 5 min, and injected for LC-MS/MS analysis.
Preparation of blank control sample (PPT-0): 100 μL of frozen human blank plasma was taken, to which 195 μL of acetonitrile and 100 μL of internal standard were added, followed by 5 μL of the compound of the present invention, clopidogrel or 2-oxo product (20 μM). The mixture was vortexed for 1 min and centrifuged for 10 min. 100 μL of the supernatant was taken into an inner inserted tube, centrifuged for 5 min, and injected for LC-MS/MS analysis.

[2] = system: arteriovenous bypass thrombosis in rats; test: Test of effect of compounds on arteriovenous bypass thrombosis in rats; format: in vivo, SD rats; set-up: Dry weight of thrombus (%): unit not given here; settings: for Inhibition rate (%): dry weight of thrombus; for Inhibition rate (%) / Dry weight of thrombus (%): rats; for Dry weight of thrombus (%): loop opened 2.5 h after administration, 15 min
Experimental: Test of Effect of Compounds on Arteriovenous Bypass Thrombosis in Rats
Male SD rats were randomly divided into solvent control group, positive drug control group and test compound group. The solvent control group was administered a corresponding volume of the solvent. […] Rats were anesthetized with 4% chloral hydrate (0.32 g/kg), and fixed on the operating table at the supine position. The right common carotid artery and the left external jugular vein were separated, and was each inserted with a Teflon tube filled with normal saline solution containing heparin (50 U/mL), which were connected through another Teflon tube. A 6 cm long cotton thread was placed at the joints of the two tubes. After 2.5 h of administration, the arteriovenous loop was opened in each group and circulated for 15 min. The blood flow was interrupted, and the cotton thread wrapped with the thrombus was quickly removed and weighed. The weight of the cotton thread was subtracted to obtain the wet weight of the thrombus, and then it was baked in the oven to constant weight and weighed. The weight of the cotton thread was subtracted to obtain the dry weight of the thrombus.

[3] = system: platelet aggregation induced by ADP; test: Test of inhibitory effect of compounds on platelet aggregation in rats (ex vivo, ADP-induced, after intragastric administration); set-up: species or system SD rats; settings: for Inhibition rate (%): platelet aggregation, control = 100%; for Inhibition rate (%) / Aggregation rate (%): rats; for Aggregation rate (%): 2 h after administration, ADP 20 uM
Experimental: Test of Inhibitory Effect of Compounds on Platelet Aggregation in Rats Healthy male SD rats were selected and randomly divided into solvent control group, positive drug control group and test compound group. Intragastric administration was carried out, with the administration volume being 10 ml/kg˜bw. […] The platelet count was adjusted to 5×10^8 cells/ml with PPP.

beagle dogs = test: Safety evaluation in single dosing; format: in vivo; settings: intragastric single dose of 2 g/kg
Experimental: Safety Evaluation of Compounds I-1 and I-2 in Single Dosing: The test consisted of a physiological control group, a solvent control group, and two administration groups, with 4 animals in each group, half of which were male and the other half of which were female. The animals were intragastrically administered with the test compounds at a single dose of 2 g/kg. The solvent control group was administered with an equal volume of the blank solvent. Animals were daily observed for various conditions during the test. ECG examinations were performed before administration, 1 h after administration, and 7 and 14 days after administration. Hematological and blood biochemical tests were performed before administration and 1, 7 and 12 days after administration.

In the case of `C/C=C/C(=O)Oc1cc2c(s1)CCN([C@H](C(=O)OC)c1ccccc1Cl)C2` [Compound I-1, Methyl (S,E)-2-(2-chlorophenyl)-2-(2-(2-butenoyloxy)-6,7-dihydrothieno[3,2-c]pyridin-5(4H)-yl)-acetate], the “2-Oxo metabolite concentration in human plasma” value (“2-Oxo metabolite concentration” for short) ([1]; 0 min) is reported as 0.0412 µM, the “2-Oxo metabolite in human plasma, %” value ([1]; 0 min) is reported as 4.34% and the “Concentration of incubated compound in human plasma” value (“Concentration of incubated compound” below) ([1]; 0 min) is reported as 950 nM. The “Incubated compound in human plasma, %” value ([1]; 0 min) was 100%, the “Generation of 2-oxo (2-Oxo) product in human plasma” value [1] was “rapidly generate 2-oxo products” and the “2-Oxo metabolite concentration” value ([1]; 5 min) was 0.0807 µM. The “2-Oxo metabolite in human plasma, %” value ([1]; 5 min) was 8.49%, the “Concentration of incubated compound” value ([1]; 5 min) was 872 nM and the “Incubated compound in human plasma, %” value ([1]; 5 min) was 91.7%. For the same molecule, the “2-Oxo metabolite concentration” value ([1]; 10 min) was 0.143 µM, the “2-Oxo metabolite in human plasma, %” value ([1]; 10 min) was 15.1% and the “Concentration of incubated compound” value ([1]; 10 min) was 782 nM. For the same molecule, the “Incubated compound in human plasma, %” value ([1]; 10 min) was 82.3%, the “2-Oxo metabolite concentration” value ([1]; 20 min) was 0.195 µM and the “2-Oxo metabolite in human plasma, %” value ([1]; 20 min) was 20.5%. The “Concentration of incubated compound” value ([1]; 20 min) was 575 nM, the “Incubated compound in human plasma, %” value ([1]; 20 min) was 60.5% and the “2-Oxo metabolite concentration” value ([1]; 30 min) was 0.198 µM. For the same molecule, the “2-Oxo metabolite in human plasma, %” value ([1]; 30 min) was 20.8%, the “Concentration of incubated compound” value ([1]; 30 min) was 425 nM and the “Incubated compound in human plasma, %” value ([1]; 30 min) was 44.7%. For the same molecule, the “2-Oxo metabolite concentration” value ([1]; 45 min) was 0.167 µM, the “2-Oxo metabolite in human plasma, %” value ([1]; 45 min) was 17.5% and the “Concentration of incubated compound” value ([1]; 45 min) was 266 nM. For the same molecule, the “Incubated compound in human plasma, %” value ([1]; 45 min) was 28.0%, the “2-Oxo metabolite concentration” value ([1]; 60 min) was 0.130 µM and the “2-Oxo metabolite in human plasma, %” value ([1]; 60 min) was 13.6%. The “Concentration of incubated compound” value ([1]; 60 min) was 174 nM, the “Incubated compound in human plasma, %” value ([1]; 60 min) was 18.3% and the “2-Oxo metabolite concentration” value ([1]; 90 min) was 0.0535 µM. The “2-Oxo metabolite in human plasma, %” value ([1]; 90 min) was 5.63%, the “Concentration of incubated compound” value ([1]; 90 min) was 52.2 nM and the “Incubated compound in human plasma, %” value ([1]; 90 min) was 5.49%. The “2-Oxo metabolite concentration” value ([1]; 120 min) was 0.0224 µM, the “2-Oxo metabolite in human plasma, %” value ([1]; 120 min) was 2.35% and the “Concentration of incubated compound” value ([1]; 120 min) was 16.2 nM. The “Incubated compound in human plasma, %” value ([1]; 120 min) was 1.70%, the “2-Oxo metabolite concentration” value ([1]; 150 min) was 0.00857 µM and the “2-Oxo metabolite in human plasma, %” value ([1]; 150 min) was 0.902%. For the same molecule, the “Concentration of incubated compound” value ([1]; 150 min) was 5.31 nM, the “Incubated compound in human plasma, %” value ([1]; 150 min) was 0.558% and the “2-Oxo metabolite concentration” value ([1]; 180 min) was 0.00397 µM. The “2-Oxo metabolite in human plasma, %” value ([1]; 180 min) was 0.418%, the “Concentration of incubated compound” value ([1]; 180 min) was 2.19 nM and the “Incubated compound in human plasma, %” value ([1]; 180 min) was 0.231%. For the same molecule, the “2-Oxo metabolite concentration” value ([1]; 240 min) was 0 µM, the “2-Oxo metabolite in human plasma, %” value ([1]; 240 min) was 0% and the “Concentration of incubated compound” value ([1]; 240 min) was 0 nM. For the same molecule, the “Incubated compound in human plasma, %” value ([1]; 240 min) was 0%, the “2-Oxo metabolite concentration” value ([1]; 300 min) was 0 µM and the “2-Oxo metabolite in human plasma, %” value ([1]; 300 min) was 0%. The “Concentration of incubated compound” value ([1]; 300 min) was 0 nM, the “Incubated compound in human plasma, %” value ([1]; 300 min) was 0% and the “2-Oxo metabolite concentration” value ([1]; 360 min) was 0 µM. The “2-Oxo metabolite in human plasma, %” value ([1]; 360 min) was 0%, the “Concentration of incubated compound” value ([1]; 360 min) was 0 nM and the “Incubated compound in human plasma, %” value ([1]; 360 min) was 0%. For the same molecule, the ED50 ([2]; Rattus norvegicus, po) was 7.89 mg/kg, the “Inhibition rate (%)” value ([2]; intragastric 1 mg/kg) was 18.3% and the “Inhibition rate (%)” value ([2]; intragastric 3 mg/kg) was 43.2%. The “Inhibition rate (%)” value ([2]; intragastric 10 mg/kg) was 56.0%, the “Inhibition rate (%)” value ([2]; intragastric 30 mg/kg) was 64.2% and the “Dry weight of thrombus (%)” value ([2]; intragastric 1 mg/kg) was 8.3 ± 2.7. For the same molecule, the “Dry weight of thrombus (%)” value ([2]; intragastric 3 mg/kg) was 5.8 ± 1.4, the “Dry weight of thrombus (%)” value ([2]; intragastric 10 mg/kg) was 4.5 ± 2.4 and the “Dry weight of thrombus (%)” value ([2]; intragastric 30 mg/kg) was 3.6 ± 0.5. The ED50 ([3]; Rattus norvegicus, Platelet, po) was 1 mg/kg, the “Inhibition rate (%)” value ([3]; intragastric 0.5 mg/kg) was 22.4% and the “Inhibition rate (%)” value ([3]; intragastric 1 mg/kg) was 50.2%. For the same molecule, the “Inhibition rate (%)” value ([3]; intragastric 2 mg/kg) was 77.0%, the “Aggregation rate (%)” value ([3]; intragastric 0.5 mg/kg) was 46.6 ± 8.1% and the “Aggregation rate (%)” value ([3]; intragastric 1 mg/kg) was 29.9 ± 8.7 %. For the same molecule, the “Aggregation rate (%)” value ([3]; intragastric 2 mg/kg) was 13.8 ± 11.7 %, the “ECG examinations, hematological tests and serum biochemical tests” value (beagle dogs) was “no obvious abnormalities” and the “Activities, mental condition and diet” value (beagle dogs; administration and observation period) was “normal activities, good mental condition, and normal diet”.
